Source: paper PMC8968063, “Key features of inhibitor binding to the human mitochondrial pyruvate carrier hetero-dimer” (Molecular Metabolism, 2022)

Key:
[1] = target: T1, human MPC1L/MPC2 hetero-dimer (Homo sapiens, UniProt O95563+P0DKB6); assay: Inhibition of [14C]-pyruvate homo-exchange in MPC1L/MPC2 proteoliposomes; assay type: biochemical; details: for Inhibition of pyruvate transport, residual activity compared to control: compound 100 μM; for Inhibition of pyruvate transport, residual activity compared to control / IC50: MPC1L/MPC2 proteoliposomes; for IC50: 50 μM [14C]-pyruvate homo-exchange, mean ± s.d., read-out: IC50 of pyruvate transport inhibition; for Inhibitory potency for human MPC1L/MPC2 compared to yeast Mpc1/Mpc3: human vs yeast protein, yeast values ref 15
T1 construct: eight-histidine tag (C, cleaved yes); TEV protease cleavage site (part stays on MPC2 after digestion) (C, cleaved yes); made in house; host or cells: Saccharomyces cerevisiae SHY15 (mpc triple deletion strain), purified from mitochondria
T1 sequence (P0DKB6 2-136): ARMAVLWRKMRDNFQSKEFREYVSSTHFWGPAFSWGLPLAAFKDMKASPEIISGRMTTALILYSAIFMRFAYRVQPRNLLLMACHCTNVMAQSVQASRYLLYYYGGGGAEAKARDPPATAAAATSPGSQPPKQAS
T1 sequence (O95563 2-127): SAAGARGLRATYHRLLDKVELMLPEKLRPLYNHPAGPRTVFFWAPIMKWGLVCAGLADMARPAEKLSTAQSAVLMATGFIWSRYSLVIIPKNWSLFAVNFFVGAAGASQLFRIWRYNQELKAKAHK
Description: Egg L-α-phosphatidylcholine 99% (w/v) (Avanti Polar Lipids, AL, USA) and TOCL were mixed in a 20:1 (w/w) ratio, dried under a stream of nitrogen and washed once with methanol before being dried again. Lipids were hydrated in 20 mM Tris–HCl, pH 8.0, 50 mM NaCl to a concentration of 12 mg/mL. Unlabeled pyruvate was added as a freshly made concentrated stock at a final concentration of 5 mM for internalisation. Lipids were solubilised with 1.2% (v/v) pentaethylene glycol monodecyl ether (Sigma) and freshly purified protein was added at a lipid-to-protein ratio of 250:1 (w/w). Samples were incubated on ice for 5 min, then liposomes were formed by the step-wise removal of pentaethylene glycol monodecyl ether by five additions at 20 min intervals of 60 mg Bio-Beads SM-2 (Bio-Rad, Watford, UK) with gentle mixing at 4 °C. A final addition of 480 mg Bio-Beads was incubated with the samples overnight. Proteoliposomes were first separated from the Bio-Beads by passage through empty spin columns (Bio-Rad, Watford, UK) and subsequently pelleted at 120,000×g for 60 min. The proteoliposomes were resuspended with a thin needle in 150 μL of their supernatant after the rest of the supernatant was removed.
The time course of pyruvate homo-exchange was measured at room temperature. The transport was initiated by diluting proteoliposomes 200-fold into external buffer, 20 mM MES, pH 6.4, 50 mM NaCl, containing 50 μM [^14C]-pyruvate (500,000 dpm, Perkin Elmer, MA, USA). The reaction (0–30 s) was terminated by rapid dilution into 8 volumes of ice-cold internal buffer (20 mM Tris–HCl, pH 8.0, 50 mM NaCl), followed by rapid filtration through cellulose nitrate 0.45 μm filters (Millipore, Gillingham, UK) and washing with an additional 8 volumes of buffer. The filters were dissolved in Ultima Gold scintillation liquid (Perkin Elmer, MA, USA) and the radioactivity was counted with a Perkin Elmer Tri-Carb 2800 RT liquid scintillation counter. […] The data analysis was performed with non-linear regression fittings using GraphPad Prism 7.0d ([Inhibitor] vs response, variable slope). The specific uptake rates were calculated based on the amount of protein used in reconstitutions, as estimated from bicinchoninic acid assay. The biological repeats represent independent proteoliposome preparations using protein from independent purifications.

human MPC1L/MPC2 complex [2] = target: T2, human MPC1L/MPC2 complex (Homo sapiens, UniProt O95563+P0DKB6); assay: CPM thermostability shift assay, purified MPC1L/MPC2; assay type: binding; details: for ΔTm at 100 µM: read-out: ∆Tm, CPM assay (thermal shift compared to no-ligand control); for Tm, CPM assay: unliganded 51.3 ± 0.2, mean ± s.d., 3 biological repeats
T2 construct: eight-histidine tag (C, cleaved yes); TEV protease cleavage site (part stays on MPC2 after digestion) (C, cleaved yes); made in house; host or cells: Saccharomyces cerevisiae SHY15 (mpc triple deletion strain), purified from mitochondria
T2 sequence (P0DKB6 2-136): T1 sequence (P0DKB6 2-136)
T2 sequence (O95563 2-127): T1 sequence (O95563 2-127)
Description: (§1) The assessment of ligand binding was performed via shifts in protein thermostability upon binding using thermal denaturation on a rotary quantitative PCR (qPCR) instrument (Qiagen Rotor-Gene Q 2plex HRM, Venlo, Netherlands), as previously described. In this method, cysteine residues, buried within the protein structure, become solvent-exposed during denaturation in a temperature ramp and then react with 7-diethylamino-3-(4-maleimidophenyl)-4-methylcoumarin (CPM) to form fluorescent-adducts. Briefly, a CPM working solution was prepared by diluting the CPM stock (5 mg/mL in dimethyl sulfoxide) 50-fold into assay buffer (20 mM Tris–HCl, pH 7.4, 150 mM NaCl, 0.1% (w/v) LMNG, 0.1 mg/mL TOCL) and incubated for 10 min at room temperature. In each analysis, performed in duplicates or triplicates, 3 μg of purified MPC was diluted into 45 μL of assay buffer containing the desired concentration of the inhibitor then incubated for 10 min on ice. Next, 5 μL of the CPM working solution were added. Samples were incubated on ice for an additional 10 min then subjected to a temperature ramp of 5.6 °C/min. The fluorescence increase was monitored with the HRM channel of the instrument (excitation at 440–480 nm, emission at 505–515 nm). Unfolding profiles were analysed with the Rotor-Gene Q software 2.3, and the peaks of their derivatives were used to determine the apparent melting temperature.

human MPC1L/MPC2 complex [3] = target: T2, human MPC1L/MPC2 complex; assay: nano-DSF thermostability shift assay, purified MPC1L/MPC2; assay type: binding; details: inhibitor 100 μM; for Tm, nano-DSF: unliganded 51.9 ± 0.1, mean ± s.d., 2 biological repeats
Description: Ligand binding was also assessed using dye-free nano differential scanning fluorimetry (nano-DSF) to monitor fluorescence changes due to altered environments of tryptophan and tyrosine residues during unfolding. Protein samples in buffer containing 20 mM Tris–HCl pH 7.4, 150 mM NaCl, 0.1% (w/v) LMNG, 0.1 mg/mL TOCL, in the presence or absence of the indicated concentrations of small molecule inhibitors, were loaded into capillary tubes, and a temperature ramp of 5 °C/min was applied. The intrinsic fluorescence was measured using the NanoTemper Prometheus NT.48 (NanoTemper, München, Germany).

MPC1/MPC2 hetero-dimer = target: T3, MPC1/MPC2 hetero-dimer (Homo sapiens, UniProt O95563+Q9Y5U8); assay: CPM thermostability shift assay, MPC1/MPC2; assay type: binding; details: 100 μM inhibitor
T3 construct: eight-histidine tag (C, cleaved yes); Factor Xa cleavage site (C, cleaved yes); made in house; host or cells: Saccharomyces cerevisiae SHY15 (mpc triple deletion strain), purified from mitochondria
T3 sequence (Q9Y5U8 2-109 limits assumed): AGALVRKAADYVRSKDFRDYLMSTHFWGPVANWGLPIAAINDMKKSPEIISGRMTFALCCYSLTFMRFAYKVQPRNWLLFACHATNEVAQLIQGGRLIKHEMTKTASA
T3 sequence (O95563 2-127 limits assumed): T1 sequence (O95563 2-127)
Description: as §1

MPC2 protomer = target: T4, MPC2 protomer (Homo sapiens, UniProt O95563); assay: CPM thermostability shift assay, individually purified MPC2; assay type: binding; details: 100 μM inhibitor
T4 construct: Factor Xa or TEV cleavage site followed by eight-histidine tag (C); made in house
T4 sequence (O95563 1-127): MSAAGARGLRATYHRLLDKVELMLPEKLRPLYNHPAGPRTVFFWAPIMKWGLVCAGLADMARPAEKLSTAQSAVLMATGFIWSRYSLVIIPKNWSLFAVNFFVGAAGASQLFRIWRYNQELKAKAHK
Description: as §1

[4] = target: T5, recombinant human MPC1L/MPC2 (Homo sapiens, UniProt O95563+P0DKB6); assay: Electrospray mass spectrometry of MPC1L/MPC2 after reaction with inhibitors or sulfhydryl modifiers; details: for Mass difference (observed vs calculated), MPC1L (2–136) / Mass difference (observed vs calculated), MPC1L (5–136) / Mass difference (observed vs calculated), MPC2 (2–137): MPC1L/MPC2 after reaction with compound; for Covalent modification of MPC protomers (molecular mass change): folded MPC1L/MPC2 incubated with compound, ESI-MS
T5 construct: MPC1L (2–136); MPC2 (2–137); eight-histidine tag (C, cleaved yes); TEV protease cleavage site (part stays on MPC2 after digestion) (C, cleaved yes); made in house; host or cells: Saccharomyces cerevisiae SHY15 (mpc triple deletion strain), purified from mitochondria
T5 sequence (P0DKB6 2-136 limits assumed): T1 sequence (P0DKB6 2-136)
T5 sequence (O95563 2-127 limits assumed): T1 sequence (O95563 2-127)
Description: Different MPC inhibitors (Table1) or sulfhydryl reagents were first incubated with MPC1L/MPC2 in a folded state, then the protein molecular masses were measured by electrospray mass spectrometry. The MPC subunits (10 μg) were resolved by reverse-phase HPLC on a PLRP-S column (1.0 mm i.d. X 75 mm; VARIAN) using a gradient of 2-propanol in a solvent system compatible with the recovery of membrane proteins (Carroll et al., 2009). The eluate (50 μL/min) was introduced into a QTRAP4000 (SCIEX) mass spectrometer operating in positive ion single MS mode. The instrument was scanned from 700 m/z to 2300 m/z after calibration with ions from a mixture of 1.0 μM of myoglobin and 1.5 μM trypsinogen. Molecular masses were obtained by reconstruction of the spectra of multiply charged ions using PeakView (SCIEX).

mammalian MPCs = details: isolated mitochondria; cited from earlier work

## N#CC(=Cc1ccc(O)cc1)C(=O)O [CHC, α-cyano-4-hydroxy-cinnamate]
[1]
  Inhibition of pyruvate transport, residual activity compared to control: completely inhibited
Human MPC1L/MPC2 complex [2]; inhibitor 100 μM
  ΔTm at 100 µM: 8.3 ± 0.6 °C
  Tm, CPM assay: 59.6 ± 0.4 °C
Human MPC1L/MPC2 complex [3]
  ∆Tm, nano-DSF: 7.0 ± 0.5 °C
  Tm, nano-DSF: 58.9 ± 0.4 °C
MPC1/MPC2 hetero-dimer
  Thermostability shift of MPC1/MPC2: strong shifts
MPC2 protomer
  Thermostability shift of MPC2 alone: neither CHC nor zaprinast showed any shift

## N#CC(=Cc1cn(-c2ccccc2)c2ccccc12)C(=O)O [UK5099, α-cyano-β-(1-phenylindol-3-yl)-acrylate]
[1]
  Inhibition of pyruvate transport, residual activity compared to control: completely inhibited
Human MPC1L/MPC2 complex [2]; inhibitor 100 μM
  ΔTm at 100 µM: 11.2 ± 1.1 °C
  Tm, CPM assay: 62.5 ± 0.9 °C
Human MPC1L/MPC2 complex [3]
  ∆Tm, nano-DSF: 9.2 ± 0.7 °C
  Tm, nano-DSF: 61.1 ± 0.6 °C
[4]
  Mass difference (observed vs calculated), MPC1L (2–136): 0.6 Da
  Mass difference (observed vs calculated), MPC1L (5–136): 0.6 Da
  Mass difference (observed vs calculated), MPC2 (2–137): 1.7 Da
  Covalent modification of MPC protomers (molecular mass change): no molecular mass differences
Mammalian MPCs
  Ki: ~0.05 µM

## CCCOc1ccccc1-c1nc2nn[nH]c2c(=O)[nH]1 [Zaprinast]
[1]
  IC50: 0.321 ± 0.042 µM
  Inhibition of pyruvate transport, residual activity compared to control: completely inhibited
  Inhibitory potency for human MPC1L/MPC2 compared to yeast Mpc1/Mpc3: much higher potencies
Human MPC1L/MPC2 complex [2]; inhibitor 100 μM
  ΔTm at 100 µM: 7.5 ± 0.6 °C
  Tm, CPM assay: 58.8 ± 0.4 °C
Human MPC1L/MPC2 complex [3]
  ∆Tm, nano-DSF: 6.3 ± 0.4 °C
  Tm, nano-DSF: 58.2 ± 0.3 °C
MPC1/MPC2 hetero-dimer
  Thermostability shift of MPC1/MPC2: strong shifts
MPC2 protomer
  Thermostability shift of MPC2 alone: neither CHC nor zaprinast showed any shift
[4]
  Mass difference (observed vs calculated), MPC1L (2–136): 0.4 Da
  Mass difference (observed vs calculated), MPC1L (5–136): 0.3 Da
  Mass difference (observed vs calculated), MPC2 (2–137): 1.5 Da
  Covalent modification of MPC protomers (molecular mass change): no molecular mass differences

## O=C(O)c1nn(Cc2ccc(Cl)cc2Cl)c2ccccc12 [Lonidamine, lonidamine]
[1]
  IC50: 4.6 ± 1.3 µM
  Inhibitory potency for human MPC1L/MPC2 compared to yeast Mpc1/Mpc3: much higher potencies
Human MPC1L/MPC2 complex [2]; compound 1 mM
  Thermal shift in the CPM assay: negative thermal shift
Human MPC1L/MPC2 complex [2]; inhibitor 100 μM
  ∆Tm, CPM assay (thermal shift compared to no-ligand control): No thermal shifts
  ΔTm at 100 µM: -0.2 ± 0.5 °C
  Tm, CPM assay: 51.1 ± 0.3 °C
Human MPC1L/MPC2 complex [3]
  ∆Tm, nano-DSF: 0.6 ± 0.3 °C
  Tm, nano-DSF: 52.5 ± 0.2 °C
Human MPC1L/MPC2 complex [3]; listed as lonidamine
  ∆Tm, nano-DSF: No thermal shifts
Mammalian MPCs
  Ki: 2.5 µM
